Source: patent US8546377B2 (AbbVie Inc., priority 2009, dated 2013)
“Also recorded” adds a separate entry of the source. Where two headings read alike, the source gives them in different places.

Columns and labels:
[1] = biological target: T1, human serotonin 5-HT2c receptor (Homo sapiens, UniProt P28335); assay: Human 5-HT2C receptor radioligand binding assay (agonist site, [125I](±)DOI); conditions: membranes of transfected CHO cells, 0.2 nM [125I](±)DOI, 15 minutes at 37° C.
T1 construct: expressed in transfected cells; host or cells: CHO cells (membrane homogenate)
T1 sequence (P28335 33-458): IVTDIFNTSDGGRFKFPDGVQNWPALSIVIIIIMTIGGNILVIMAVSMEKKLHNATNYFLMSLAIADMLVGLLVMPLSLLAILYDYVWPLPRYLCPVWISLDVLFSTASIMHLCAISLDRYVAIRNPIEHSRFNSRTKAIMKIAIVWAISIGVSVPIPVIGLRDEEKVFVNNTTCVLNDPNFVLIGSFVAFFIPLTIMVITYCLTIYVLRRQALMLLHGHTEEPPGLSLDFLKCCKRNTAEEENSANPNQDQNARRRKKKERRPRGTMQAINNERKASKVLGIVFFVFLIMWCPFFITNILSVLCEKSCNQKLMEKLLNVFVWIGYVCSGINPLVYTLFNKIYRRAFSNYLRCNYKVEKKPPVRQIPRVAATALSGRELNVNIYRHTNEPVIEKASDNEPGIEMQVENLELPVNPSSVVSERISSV
Description: To determine the effectiveness of compounds having a formula (I), these compounds can be evaluated in a radioligand binding assay for the agonist site of the human serotonin 5-HT2c receptor or in vitro models of cellular function.
(i) Human 5-HT2C Receptor Radioligand Binding Assay
Affinity of compounds for the agonist site of the 5-HT2c receptor in transfected CHO cells was determined in a radioligand binding assay essentially as described by Bryant, H. U., et al., Life Sciences (1996) 59(15), 1259-1268.

[2] = tested on: AMP-induced hyperactivity; assay: d-Amphetamine-induced hyperlocomotion in mice; type: in vivo; conditions: test compound ip 30 minutes before d-amphetamine 2.0 mg/kg sc, FIG. 1
Text: (v) Assessment of Effects on Psychostimulant-Induced Hyperlocomotion in Mice
In both humans and experimental animals amphetamine profoundly affects motor activity, sensorimotor function, sleep, attention, aggressive and sexual behaviors, learning and memory, operant behaviors, appetite and food intake. In addition, amphetamine induces psychotic reactions in normal individuals and exacerbates symptoms of schizophrenia in patients. In experimental animals several distinct behaviors are considered to be correlates of amphetamine psychosis. For example, amphetamine-induced hyperactivity in rodents is believed to model the psychotic symptoms of schizophrenia. Reversal of these behaviors is used to predict potential antipsychotic activity of drugs in pre-clinical studies.
Male NMRI mice (5-week old, Janvier, France) or C57BL/6J mice (6-week old, Janvier, France) were group housed and allowed ad-libitum access to food and water. A 12 hour light/dark cycle was imposed with lights-on period between 0530 and 1730 hours. All testing occurred between 700 and 1300 hours. All procedures were approved by Abbott Institutional Animal Care and Use Committee (USA) or Animal Welfare Officer (Germany) and were conducted in accordance with the National Institutes of Health Guide for Care and Use of Laboratory Animals guidelines and applicable national laws in the facilities accredited by the Association for the Assessment and Accreditation of Laboratory Animal Care.
On the day of experiment, animals were brought from the animal facility into the experimental room and were allowed to acclimatize for at least 30 minutes. Animals were then placed in the test cages for a habituation period of 60 minutes. The animals were then injected ip with the test compound and returned to the test cage. 30 Minutes later, the mice were injected with d-amphetamine (2.0 mg/kg, AMP, Sigma, #A5880, sc) or phencyclidine (2.0 mg/kg, PCP, Sigma, #P3029, sc), and returned to the test cages for 90 minutes. […] The analyzed data were: fine movements, ambulations and total movements (fine+ambulations). […]

5HT2B receptors = biological target: T2, 5HT2B receptors (Homo sapiens, UniProt P41595); assay: Human 5-HT2B functional assay in CHO-K1 cells (calcium flux, FLIPR); type: cell-based; conditions: for Emax: CHO-K1 cells, percentage relative to the effect of serotonin, read-out: Emax (%), 5-HT2B Agonist Activity
T2 construct: expressed in transfected cells; host or cells: CHO-K1 cells
T2 sequence (P41595 whole entry): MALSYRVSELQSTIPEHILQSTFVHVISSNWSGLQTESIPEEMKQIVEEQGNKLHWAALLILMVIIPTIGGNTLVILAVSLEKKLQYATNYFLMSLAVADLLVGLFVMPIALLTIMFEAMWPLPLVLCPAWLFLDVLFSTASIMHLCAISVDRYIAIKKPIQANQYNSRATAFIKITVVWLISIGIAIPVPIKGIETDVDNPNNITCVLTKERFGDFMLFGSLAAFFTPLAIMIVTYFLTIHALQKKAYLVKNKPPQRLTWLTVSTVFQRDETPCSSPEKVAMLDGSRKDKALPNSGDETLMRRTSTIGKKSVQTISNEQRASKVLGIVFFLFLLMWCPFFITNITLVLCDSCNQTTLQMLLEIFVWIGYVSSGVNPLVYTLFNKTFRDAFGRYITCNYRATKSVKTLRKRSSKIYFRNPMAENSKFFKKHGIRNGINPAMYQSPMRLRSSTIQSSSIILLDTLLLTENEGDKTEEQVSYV
Outline: (§1)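 EC50 came from a 4-parameter logistic fit, with Emax expressed relative to serotonin, of intracellular Ca2+ rises read on FLIPR at 480/530 nm, 25° C, over 3 min. Compounds ran from 10 μM in six 1:10 steps (0.2% DMSO) on serum-starved CHO-K1 transfectants pre-loaded 60 min with Ca4 dye and probenecid.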

5HT2C receptors [3] = biological target: T3, 5HT2C receptors (Homo sapiens, UniProt P28335); assay: Human 5-HT2C functional assay in 1321N1 cells (intracellular calcium, FLIPR); type: cell-based; design: expressed in transfected cells; host or cells: 1321N1 cells; conditions: for EC50: 1321N1 cells stably transfected, maximum calcium response, read-out: EC50 (μM), 5-HT2c Agonist Activity
T3 sequence (P28335 33-458): T1 sequence (P28335 33-458)
Description: (ii) Human 5-HT2C Functional Assay in 1321N1 Cells
Functional activity was determined by testing the effect of the compounds on intracellular calcium levels in 1321N1 cells stably transfected with the human 5-HT2C receptor. Cells were seeded into 96-well plates at 50,000 cells/well and grown overnight in tissue culture medium (DMEM with Glutamax I (Invitrogen), containing 10% dFCS, 50 μg/mL Gentamicin, 400 μg/mL Geneticin) at 37° C. and 7% CO2. Growth medium was replaced by medium without dFCS for overnight incubation. Cells were loaded with a fluorescent calcium-sensitive dye in the presence of 1% probenicid according to the manufacturer's protocol (Fluo4 AM, Molecular Devices). Serial compound dilutions (final concentrations 10^−10 to 10^−5 M) were added to the cells either alone or in the presence of serotonin (10^−9 M) and the maximum calcium response was determined using a FLIPR instrument (Molecular Devices). Concentration-response curves were fitted using a four-parameter logistic equation (GraphPad Prism). The concentration at which the compound exerts half its maximal effect is named the ‘effective concentration 50’ or ‘EC50’ and is listed in Table 2.
Emax is the maximum functional response or efficacy expressed as a percentage relative to the effect of serotonin.

5HT2C receptors [4] = biological target: T3, 5HT2C receptors; assay: Human 5-HT2C functional assay in CHO-K1 cells (calcium flux, FLIPR); type: cell-based; design: expressed in transfected cells; host or cells: CHO-K1 cells; conditions: for Emax: percentage relative to the effect of serotonin
Outline: as §1

h-5-HT6 receptor = biological target: T4, h-5-HT6 receptor (Homo sapiens, UniProt P50406); assay: Human 5-HT6 receptor radioligand binding assay ([3H]-LSD, HEK293 membranes)
T4 construct: expressed in transfected cells; host or cells: HEK293 cells (membrane preparation)
T4 sequence (P50406 whole entry): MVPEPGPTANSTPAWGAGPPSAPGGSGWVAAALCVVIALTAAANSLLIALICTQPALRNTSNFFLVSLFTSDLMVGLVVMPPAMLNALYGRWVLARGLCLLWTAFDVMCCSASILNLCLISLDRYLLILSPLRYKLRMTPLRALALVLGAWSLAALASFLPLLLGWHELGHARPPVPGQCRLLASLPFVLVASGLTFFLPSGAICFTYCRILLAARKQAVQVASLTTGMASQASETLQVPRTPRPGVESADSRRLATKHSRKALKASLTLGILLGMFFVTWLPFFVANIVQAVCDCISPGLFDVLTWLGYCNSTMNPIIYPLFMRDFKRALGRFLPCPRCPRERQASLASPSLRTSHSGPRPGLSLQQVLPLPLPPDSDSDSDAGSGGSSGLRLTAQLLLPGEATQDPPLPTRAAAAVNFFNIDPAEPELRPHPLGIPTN
Description: (iv) Human 5-HT6 Receptor Radioligand Binding Assay
Preparation of Membranes by Ultrasonic Treatment and Differential Centrifugation
Cells from stable clonal cell lines expressing the corresponding receptor (5-HT6) were washed with PBS (without Ca^++, Mg^++) and harvested in PBS with 0.02% EDTA. The cells were collected by centrifugation at 500 g for 10 minutes at 4° C., washed with PBS and centrifuged (500 g, 10 minutes at 4° C.). The pellets were stored at −80° C. until use. For membrane preparation, the thawed cell pellet was resuspended in ice-cold sucrose buffer (0.25 M sucrose, 10 mM HEPES (pH 7.4), 1 mM phenylmethylsulfonyl fluoride (PMSF) in DMSO, 5 μg/ml Pepstatin-A, 3 mM EDTA, 0.025% Bacitracin) and homogenized with a Branson Sonifier W-250 (Settings: Timer 4; Output Control 3; Duty Cycle constant; 2 to 3 cycles). Cell disruption was checked with the aid of a microscope. Remaining unbroken cells were pelleted at 1,000 g for 10 minutes at 4° C. The sucrose buffer supernatant was then centrifuged at 60,000 g for 1 hour at 4° C. (Beckman Ultrazentrifuge XL 80). The pellet was resuspended in 30 mL of ice-cold Tris buffer (20 mM TRIS (pH 7.4), 5 μg/mL Pepstatin A, 0.1 mM PMSF, 3 mM EDTA) by pipetting through a 10 mL serological pipet and centrifuged for 1 hour at 4° C. at 60,000 g. A final resuspension was performed in a small volume of ice-cold Tris buffer (see above) by pressing through a serological pipet followed by ultrasonic treatment with a Branson Sonifier W-250 (Settings: Timer 1; Output Control 3; Duty Cycle constant; 1 cycle). Protein concentration was determined (BCA-Kit; Pierce) and aliquots stored at −80° C. or in liquid nitrogen for long-term storage.
Receptor Binding Experiments
All receptor binding experiments were carried out in the corresponding assay buffer in a total volume of 200 μL in the presence of various concentrations of test compound (10^−5 M to 10^−9 M, tenfold serial dilution, duplicate determinations). The assays were terminated by filtration on polyethylenimine (PEI 0.1% or 0.3%) presoaked Packard Unifilter Plates (GF/C or GF/B) with a Tomtec MachIII U 96 well-plate harvester. After the plates had been dried for 2 hours at 55° C. in a drying chamber scintillation cocktail (BetaPlate Scint; PerkinElmer) was added. Radioactivity was measured in a Microbeta Trilux two hours after the addition of the scintillation mixture.
5-HT6 Receptor Binding Assay
HEK293 cells stably expressing the h-5-HT6 receptor (NCBI Reference Sequence XM 001435) were cultured in RPMI1640 medium supplemented with 25 mM HEPES, 10% fetal calf serum and 1-2 mM glutamine. The membrane preparation was performed as described above. […] On the day of the assay, the membranes were thawed, diluted in assay buffer (50 mM Tris-HCl, 5 mM CaCl2, 0.1% ascorbic acid, 10 μM pargyline, pH 7.4) to a concentration of 8 μg protein/assay and homogenized by gentle vortexing. […] Non-specific binding was defined with 1 μM methiothepin. The binding reaction was carried out for 3.5 hours at room temperature. During the incubation, the plates were shaken on a plate shaker at 100 rpm and terminated by filtration on Packard Unifilter GF/C (0.1% PEI) plates, followed by 2 wash cycles with ice-cold 50 mM Tris-HCl, 5 mM CaCl2.
Data derived from liquid scintillation counting were analyzed by iterative non-linear regression analysis with the use of the Statistical Analysis System (SAS): a program similar to “LIGAND” as described by Munson and Rodbard (Anal. Biochem. 1980, 107, 220-239). Fitting was performed according to formulae described by Feldman (Anal. Biochem. 1972, 48, 317-338). IC50, nH and Ki values were expressed as geometrical mean.
The results of the receptor binding studies are expressed as receptor binding constants Ki(5-HT6) as described herein before, and given in Table 5.

[5] = CHO-K1 cells over-expressing 5HT2B, calcium flux, read-out: EC50 (μM), 5-HT2B Agonist Activity
[6] = CHO-K1 cells over-expressing 5HT2C, calcium flux, read-out: EC50 (μM), 5-HT2c Agonist Activity
[7] = HEK293 membranes, 1 nM [3H]-lysergic acid diethylamide, 3.5 hours at room temperature, read-out: Ki (μM), 5-HT6 Agonist Site Radioligand Binding
[8] = CHO-K1, read-out: Emax (%), 5-HT2c Agonist Activity, CHO-K1 cells

In the case of `O=C1C[C@H]2CNCCN2c2cc(CCc3ccccc3)ccc2N1` [Example 42, (4aS)-10-(2-phenylethyl)-1,2,3,4,4a,5-hexahydropyrazino[1,2-a][1,5]benzodiazepin-6(7H)-one], the Ki [1] is reported as 0.00071 µM, the AMP-induced hyperactivity [2] is reported as “attenuated AMP-induced hyperactivity significantly and in a dose dependent manner; also recorded: concentration-dependent effects of Example 42 attenuating the affect of d-amphetamine” and the EC50 (5HT2B receptors; [5]) is reported as 5 µM. It also gave an Emax (5HT2B receptors) of 55%, an EC50 (5HT2C receptors [3]) of 0.0011 µM and an Emax (5HT2C receptors [3]; 1321N1 cells, percentage relative to the effect of serotonin, read-out: Emax (%), 5-HT2c Agonist Activity) of 95%. The EC50 (5HT2C receptors [4]; [6]) was 0.0004 µM and the Emax (5HT2C receptors [4]; CHO-K1 cells, read-out: Emax (%), 5-HT2c Agonist Activity) was over 120%.

In the case of `O=C1NCC2CN(Cc3ccccc3)CCN2c2ccc(NS(=O)(=O)c3ccccc3)cc21` (stereo not shown) [Example 47, N-(3-benzyl-7-oxo-1,2,3,4,4a,5,6,7-octahydropyrazino[1,2-a][1,4]benzodiazepin-9-yl)benzenesulfonamide], the Ki [1] is reported as 33 µM, the Ki (h-5-HT6 receptor; [7]) is reported as 0.821 µM and the EC50 (5HT2C receptors [3]) is reported as over 10 µM.

`O=C1CC2CNCCN2c2ccc(NS(=O)(=O)c3ccccc3)cc2N1` (stereo not shown) [Example 76, N-(6-oxo-1,2,3,4,4a,5,6,7-octahydropyrazino[1,2-a][1,5]benzodiazepin-9-yl)benzenesulfonamide] was tested, and the Ki (h-5-HT6 receptor; [7]) was 0.025 µM and the EC50 (5HT2C receptors [4]; [6]) was over 100 µM.

In the case of `O=C1CC2CNCCN2c2ccc(S(=O)(=O)c3ccccc3)cc2N1` (stereo not shown) [Example 112, 9-(phenylsulfonyl)-1,2,3,4,4a,5-hexahydropyrazino[1,2-a][1,5]benzodiazepin-6(7H)-one], the Ki (h-5-HT6 receptor; [7]) is reported as 0.017 µM, the EC50 (5HT2B receptors; [5]) is reported as 0.9 µM and the Emax (5HT2B receptors) is reported as 90%. The EC50 (5HT2C receptors [4]; [6]) was over 10 µM.

`O=C1NCC2CNCCN2c2ccc(NS(=O)(=O)c3cccc(C(F)(F)F)c3)cc21` (stereo not shown) [Example 184, N-(7-oxo-1,2,3,4,4a,5,6,7-octahydropyrazino[1,2-a][1,4]benzodiazepin-9-yl)-3-(trifluoromethyl)benzenesulfonamide] showed a Ki (h-5-HT6 receptor; [7]) of 0.008 µM, an EC50 (5HT2B receptors; [5]) of over 10 µM and an EC50 (5HT2C receptors [4]; [6]) of over 10 µM.

Compound `Cc1cccc2c1OCC[C@H]1CNCCN21` [Example 226, (4aS)-8-methyl-2,3,4,4a,5,6-hexahydro-1H-pyrazino[2,1-d][1,5]benzoxazepine] has a Ki (h-5-HT6 receptor) of 2.06 µM, an EC50 (5HT2B receptors) of over 10 µM and an EC50 (5HT2C receptors [4]) of 0.0008 µM. For the same compound, the Emax (5HT2C receptors [4]; [8]) was 90%.

`CN1CCN2c3cccc(F)c3OCC[C@H]2C1` [Example 231, (4aS)-8-fluoro-3-methyl-2,3,4,4a,5,6-hexahydro-1H-pyrazino[2,1-d][1,5]benzoxazepine] showed a Ki (h-5-HT6 receptor) of 0.855 µM, an EC50 (5HT2B receptors) of over 10 µM and an EC50 (5HT2C receptors [4]) of 0.004 µM. It also gave an Emax (5HT2C receptors [4]; [8]) of 85%.
